Calls of active or inactive are those of the source. No cut-off for these calls is given here.
What was measured:
[1] = target: T1, Protein cereblon/Eukaryotic peptide chain release factor GTP-binding subunit ERF3A (Homo sapiens, UniProt Q96SW2+P15170); test: Molecular glue activity at CRBN/GSPT1 in human 22Rv1 cells assessed as induction of GSPT1 degradation at 0.01 uM incubated for 24 hrs by Western blot analysis relative to control; assay type: cell-based
[2] = target: T2, Protein cereblon/Androgen receptor (Homo sapiens, UniProt P10275+Q96SW2); test: PROTAC activity at CRBN/AR in human 22Rv1 cells assessed as induction of AR degradation at 20 nM incubated for 24 hrs by Western blot analysis (reference value: 0 %); assay type: cell-based
Target sequence in this assay (Q96SW2 whole entry, looked up, one chain of several, canonical isoform): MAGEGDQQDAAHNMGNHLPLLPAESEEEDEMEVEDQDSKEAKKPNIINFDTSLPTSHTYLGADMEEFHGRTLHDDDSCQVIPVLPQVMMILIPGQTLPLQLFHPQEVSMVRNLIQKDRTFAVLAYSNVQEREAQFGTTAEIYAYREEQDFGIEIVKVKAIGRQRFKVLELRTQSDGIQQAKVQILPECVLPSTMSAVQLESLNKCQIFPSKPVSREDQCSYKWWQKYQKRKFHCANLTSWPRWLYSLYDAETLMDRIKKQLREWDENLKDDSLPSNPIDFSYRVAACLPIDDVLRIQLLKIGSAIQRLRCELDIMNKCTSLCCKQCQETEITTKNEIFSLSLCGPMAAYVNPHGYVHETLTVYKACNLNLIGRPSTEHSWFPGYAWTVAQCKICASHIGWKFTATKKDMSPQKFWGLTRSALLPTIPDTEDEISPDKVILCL

[3] = tested on: Protein cereblon/Androgen receptor (Homo sapiens), P10275+Q96SW2 [UNDEFINED MUTATION]; test: PROTAC activity at CRBN/Androgen receptor splice variant 7 in human 22Rv1 cells assessed as induction of AR-V7 degradation at 20 nM incubated for 6 hrs by Western blot analysis (reference value: 0%); assay type: cell-based
[4] = tested on: Protein cereblon/Androgen receptor (Homo sapiens), P10275+Q96SW2 [UNDEFINED MUTATION]; test: PROTAC activity at CRBN/Androgen receptor splice variant 7 in human 22Rv1 cells assessed as induction of AR-V7 degradation at 20 nM incubated for 18 hrs by Western blot analysis (reference value: 0%); assay type: cell-based
[5] = target: T1, Protein cereblon/Eukaryotic peptide chain release factor GTP-binding subunit ERF3A; test: Molecular glue activity at CRBN/GSPT1 in human 22Rv1 cells assessed as induction of GSPT1 degradation at 20 nM incubated for 12 hrs by Western blot analysis (reference value: 0 %); assay type: cell-based
[6] = tested on: Protein cereblon/Androgen receptor (Homo sapiens), P10275+Q96SW2 [UNDEFINED MUTATION]; test: (§1) PROTAC activity at CRBN/Androgen receptor splice variant 7 in human VCaP cells assessed as induction of AR-V7 degradation incubated for 24 hrs by Western blot analysis; assay type: cell-based
[7] = target: T2, Protein cereblon/Androgen receptor; test: as §1; assay type: cell-based
Target sequence in this assay (Q96SW2 whole entry, looked up, change not shown, one chain of several, canonical isoform): as the sequence (Q96SW2 whole entry, looked up, one chain of several, canonical isoform) above

[8] = target: T2, Protein cereblon/Androgen receptor; test: PROTAC activity at CRBN/AR in human 22Rv1 cells assessed as induction of AR degradation at 50 nM preincubated with MG132 followed by compound addition and measured after 12 hrs by Western blot analysis; assay type: cell-based
Target sequence in this assay (Q96SW2 whole entry, looked up, one chain of several, canonical isoform): as above

[9] = tested on: Protein cereblon/Androgen receptor (Homo sapiens), P10275+Q96SW2 [UNDEFINED MUTATION]; test: PROTAC activity at CRBN/Androgen receptor splice variant 7 in human 22Rv1 cells assessed as induction of AR-V7 degradation at 50 nM preincubated with MG132 followed by compound addition and measured after 12 hrs by Western blot analysis; assay type: cell-based
[10] = target: T2, Protein cereblon/Androgen receptor; test: PROTAC activity at CRBN/AR in human VCaP cells assessed as induction of AR degradation at 50 nM preincubated with MG132 followed by compound addition and measured after 12 hrs by Western blot analysis; assay type: cell-based
Target sequence in this assay (Q96SW2 whole entry, looked up, one chain of several, canonical isoform): as above

[11] = tested on: 22Rv1; test: Induction of AR degradation in human 22Rv1 cells transfected with CRBN siRNA at 30 nM incubated for 24 hrs by Western blot analysis; assay type: cell-based
[12] = target: T2, Protein cereblon/Androgen receptor; test: Binding affinity to CRBN/AR in human 22Rv1 cells assessed as ternary complex formation incubated for 6 hrs by co-immunoprecipitation based Western blot analysis; assay type: cell-based
Target sequence in this assay (Q96SW2 whole entry, looked up, one chain of several, canonical isoform): as above

[13] = tested on: CWR22R; test: Antiproliferative activity against AR-dependent human 22Rv1 cells assessed as cell growth inhibition incubated for 72 hrs by Celltiter-lumi luminescent cell viability assay; assay type: functional, cell-based; details: 22Rv1, 72 h
[14] = tested on: CWR22R; test: Upregulation of p53 signaling pathway related gene expression in human 22Rv1 cells at 3 nM incubated for 24 hrs by KEGG enrichment analysis; assay type: functional, cell-based
[15] = target: T2, Protein cereblon/Androgen receptor; test: PROTAC activity at CRBN/AR in human LNCaP cells assessed as decrease in PSA protein level incubated for 24 hrs by Western blot analysis; assay type: cell-based; details: dose 1-100 nM
Target sequence in this assay (Q96SW2 whole entry, looked up, one chain of several, canonical isoform): as above

[16] = target: T3, Androgen receptor (Homo sapiens, UniProt P10275); test: Inhibition of wildtype AR (unknown origin) transcriptional activity transfected in HEK293T cells co-transfected with PSA-luciferase reporter and pRL-TK assessed as reduction in PSA-luciferase activity incubated for 24 hrs by luminescence based microplate reader analysis; assay type: cell-based
T3 sequence (P10275 whole entry): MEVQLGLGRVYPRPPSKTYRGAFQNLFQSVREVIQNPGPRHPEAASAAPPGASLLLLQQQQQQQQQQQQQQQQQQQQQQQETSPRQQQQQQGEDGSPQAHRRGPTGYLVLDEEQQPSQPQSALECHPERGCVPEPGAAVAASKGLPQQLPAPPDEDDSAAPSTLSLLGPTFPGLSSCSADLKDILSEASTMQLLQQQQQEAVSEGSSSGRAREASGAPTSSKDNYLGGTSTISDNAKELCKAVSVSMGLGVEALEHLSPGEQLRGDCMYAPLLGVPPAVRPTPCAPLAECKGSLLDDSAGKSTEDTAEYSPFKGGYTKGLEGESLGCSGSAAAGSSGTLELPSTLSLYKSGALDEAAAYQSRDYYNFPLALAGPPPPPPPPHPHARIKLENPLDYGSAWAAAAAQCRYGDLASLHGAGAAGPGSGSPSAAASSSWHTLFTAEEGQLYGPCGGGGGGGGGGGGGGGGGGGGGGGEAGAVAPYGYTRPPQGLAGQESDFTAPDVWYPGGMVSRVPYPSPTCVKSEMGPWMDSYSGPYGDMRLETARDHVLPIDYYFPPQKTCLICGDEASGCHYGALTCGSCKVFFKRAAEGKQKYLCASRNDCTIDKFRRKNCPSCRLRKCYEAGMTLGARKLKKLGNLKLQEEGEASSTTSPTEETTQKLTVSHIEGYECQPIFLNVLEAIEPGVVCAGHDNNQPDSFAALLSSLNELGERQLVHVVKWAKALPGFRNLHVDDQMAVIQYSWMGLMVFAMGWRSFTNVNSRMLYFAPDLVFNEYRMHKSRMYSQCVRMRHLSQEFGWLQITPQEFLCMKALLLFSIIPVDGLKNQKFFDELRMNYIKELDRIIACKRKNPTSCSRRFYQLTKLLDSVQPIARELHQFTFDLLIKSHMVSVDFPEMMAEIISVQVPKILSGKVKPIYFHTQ

[17] = tested on: CWR22R; test: Cell cycle arrest in human 22Rv1 cells assessed as accumulation of cells at G1 phase at 10 nM incubated for 24 hrs by flow cytometric analysis (reference value: 49.7 %); assay type: functional
[18] = tested on: LNCaP; test: Induction of apoptosis in human LNCaP cells assessed as increase in cleaved caspase-3 expression incubated for 24 hrs by Western blot analysis; assay type: functional, cell-based; details: dose 1-100 nM
[19] = tested on: LNCaP; test: Induction of apoptosis in human LNCaP cells assessed as increase in cleaved PARP expression incubated for 24 hrs by Western blot analysis; assay type: functional, cell-based; details: dose 1-100 nM
[20] = Antiproliferative activity against human Enzalutamide-resistant VCaP cells assessed as cell growth inhibition incubated for 72 hrs by Celltiter-lumi luminescent cell viability assay; assay type: functional, cell-based
[21] = Inhibition of AR W741L mutant (unknown origin) transcriptional activity transfected in HEK293T cells co-transfected with PSA-luciferase reporter and pRL-TK assessed as reduction in PSA-luciferase activity incubated for 24 hrs by luminescence based microplate reader analysis; assay type: cell-based, Homo sapiens
[22] = Half-life in male ICR mouse at 2 mg/kg, iv by LC-MS/MS analysis; assay type: ADME, organism-based; details: in vivo
[23] = Cmax in male ICR mouse at 10 mg/kg, po by LC-MS/MS analysis; assay type: ADME, organism-based; details: in vivo
[24] = Oral bioavailability in male ICR mouse at 10 mg/kg by LC-MS/MS analysis; assay type: ADME, organism-based; details: in vivo

Chain of Protein cereblon/Androgen receptor (Homo sapiens), P10275+Q96SW2 [UNDEFINED MUTATION] (Q96SW2 whole entry, looked up, change not shown, one chain of several, canonical isoform): as the sequence (Q96SW2 whole entry, looked up, one chain of several, canonical isoform) above
T1 sequence (P15170 whole entry, looked up): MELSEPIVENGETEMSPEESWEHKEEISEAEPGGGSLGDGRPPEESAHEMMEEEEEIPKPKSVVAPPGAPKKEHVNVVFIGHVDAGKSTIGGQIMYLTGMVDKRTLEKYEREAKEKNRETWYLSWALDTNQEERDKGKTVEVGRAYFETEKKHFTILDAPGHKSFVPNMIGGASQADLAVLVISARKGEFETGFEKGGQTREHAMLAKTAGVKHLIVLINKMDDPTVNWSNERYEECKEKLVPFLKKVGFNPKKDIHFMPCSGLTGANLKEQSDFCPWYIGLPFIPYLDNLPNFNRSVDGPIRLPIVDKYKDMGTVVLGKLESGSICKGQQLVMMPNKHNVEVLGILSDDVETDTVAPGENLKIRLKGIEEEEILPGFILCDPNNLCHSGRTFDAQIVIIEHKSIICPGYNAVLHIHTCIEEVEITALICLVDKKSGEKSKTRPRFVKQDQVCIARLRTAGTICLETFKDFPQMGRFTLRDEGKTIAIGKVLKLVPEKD
T1 sequence (Q96SW2 whole entry, looked up): as the sequence (Q96SW2 whole entry, looked up, one chain of several, canonical isoform) above

## COc1ccc(C(C)(C)c2cc(Cl)c(OCC3CCN(C(=O)CCCCCNc4ccc5c(c4)C(=O)N(C4CCC(=O)NC4=O)C5=O)CC3)c(C#N)c2)cc1 (centres undefined)
[1]
  Activity: 93.9%
[2]
  Activity: 94.1%
[3]
  Activity: 20.1%
[4]
  Activity: 91.4%
[5]
  Activity: 98.7%
[6]
  Activity: Dose-dependent-effect
[7]
  DC50: 2.5 nM
[8]
  Activity: inactive
[9]
  Activity: inactive
[10]
  Activity: inactive
[11]
  Activity: inactive
[12]
  Activity: Active
[13]
  IC50: 1.1 nM
[14]
  Activity: Active
[15]
  Activity: Dose-dependent-effect
[16]
  IC50: 3.2 nM
[17]
  Activity: 58.9%
[18]
  Activity: Dose-dependent-effect
[19]
  Activity: Dose-dependent-effect
[20]
  IC50: 6.99 nM
[21]
  IC50: 62.3 nM
[22]
  half-life: 54 min
[23]
  Cmax: 206 ng/mL
[24]
  bioavailability: 11.2%

— ChEMBL document CHEMBL6177998, “Rational Design of Dual Degraders by Incorporating Molecular Glue Structural Features into PROTAC Degraders” (J Med Chem, 2025)
